{
  "source": "paper PMC12766724",
  "about": "“Synthesis, Anthelmintic Activity, and Mechanism of Action of 5‑Aryl‑1H‑indoles” (Journal of Agricultural and Food Chemistry, 2025)",
  "type_in_all_cases": "in vivo, Caenorhabditis elegans",
  "key": {"[1]": {"system": "C. elegans complex II mutant RP2699", "assay": "Scoring of developmental rates, L1 exposed 5 days", "from_the_text": "(§1) Dead or mostly immobile worms, arrested at the L1 stage, received a score of 1. Populations with severely delayed development were scored as 2. More developmentally advanced, but still obviously delayed worms were given the score of 3. Adult worms that produce a noticeably lower number of progeny received a score of 4. Healthy worms that reproduce normally (i.e., hundreds of eggs and larvae are present) were scored as 5 (see Figure C for representative images). In a typical, correctly prepared experiment, vehicle-treated populations should receive a score of 5, while worms treated with ivermectin (positive control) should receive a score of 1. […]"}, "[2]": {"system": "C. elegans complex II mutant RP2700", "assay": "Scoring of developmental rates, L1 exposed 5 days", "from_the_text": "as §1"}, "[3]": {"system": "C. elegans complex II mutant RP2702", "assay": "Scoring of developmental rates, L1 exposed 5 days", "from_the_text": "as §1"}, "[4]": {"system": "C. elegans MCII mutant RP2702", "assay": "Acute motility of young adults on WMicrotracker ONE", "settings": "50 μM; 24 h", "procedure": "(§2) The effect of compounds on C. elegans N2 and SDH mutant strains was measured in a similar manner. Briefly, for evaluation of the acute effect of the compounds, age-synchronized young adults of each strain, kept in S complete medium supplemented with E. coli OP50 (3 mg/mL, fresh weight), were transferred onto microtiter plates (96-well, U bottom), and their initial motility was measured for 30 min. […] Afterward, the compounds were washed away, and worms, supplemented with fresh liquid media and food, were distributed onto 96-well plates and allowed to recover. Their activity was measured using WMicrotracker ONE at the indicated time points.\n(§3) To experimentally support this promising initial finding, we tested the effect of i-19 against several C. elegans MCII mutant strains. These nematodes carry point mutations that result in amino acid changes in regions of subunits SDHC and SDHD that contribute to the formation of the ubiquinone-binding pocket, thereby influencing its shape and the ability of inhibitors to interact with the protein. […] The compounds were tested in multiple setups. At first, young adults were exposed to higher doses (100, 50, and 10 μM) of the compounds for up to 48 h, and changes in motility were evaluated using WMicrotracker. For both compounds, we observed a less pronounced decrease in movement rates of MCII mutants compared to wild-type worms, in both a dose- and time-dependent manner (Figure )."}, "[5]": {"system": "C. elegans MCII mutant RP2699", "assay": "Acute motility of young adults on WMicrotracker ONE", "settings": "50 μM; 24 h", "procedure": "as §2, §3"}, "C. elegans wild-type N2": {"system": "C. elegans wild-type N2", "assay": "Acute motility of young adults on WMicrotracker ONE", "settings": "50 μM; 24 h", "procedure": "as §2, §3"}, "[6]": {"system": "C. elegans MCII mutant RP2700", "assay": "Acute motility of young adults on WMicrotracker ONE", "settings": "50 μM; 24 h", "procedure": "as §2, §3"}, "[7]": {"system": "mitochondrial membrane potential of C. elegans young adults", "assay": "Mitochondrial membrane potential measurement", "settings": "100 μM; 24 h", "procedure": "After 24 h, the compounds were washed away. Then, the mitochondrial membrane potential was measured using a specialized fluorescent dye (kit MAK147, Sigma-Aldrich). The kit was used according to the manufacturer’s instructions with modified incubation temperature and time (20 °C, 4 h) to account for the fact that living intact worms were used instead of cell cultures. , Dyed worms (approximately 200 per well) were distributed onto a black 96-well plate, and the fluorescence was measured using a Tecan Infinite 200 Pro plate reader.\nDetermining the mechanism of action of compounds is always challenging; however, the nature of their effect, as well as the structural similarity to compounds with known properties, can provide useful insights. One of our hypotheses was that the compounds might interfere with energy production. We based this assumption on the behavior of compound-treated worms (delayed development, lower fecundity, and relatively rapid decrease in motility rates but not necessarily death). Impaired mitochondrial function would be accompanied by a decrease in mitochondrial membrane potential (MMP)."}, "[8]": {"system": "C. elegans wild-type and MCII mutants", "assay": "Recovery of pretreated worms on WMicrotracker ONE", "settings": "5 or 10 μM for 72 h, then wash-out and recovery", "procedure": "as §2, with “Briefly,” for “The effect of compounds on C. elegans N2 and SDH mutant strains was measured in a similar manner. Briefly,”\nC. elegans L1 larvae were exposed to 5 or 10 μM of the compounds for 72 h, after which the compounds were washed away, and the recovery of the nematodes was evaluated using WMicrotracker."}},
  "data": [
    {"molecule": "Clc1ccc(-c2ccc3[nH]ccc3c2)cc1", "note": "[i-19]", "values": [
      {"measurement": "mean score (1-5)", "setting": "[1]; 1.336 µM", "result": 4.667},
      {"measurement": "mean score (1-5)", "setting": "[1]; 1.782 µM", "result": 4.667},
      {"measurement": "mean score (1-5)", "setting": "[1]; 2.376 µM", "result": 4.556},
      {"measurement": "mean score (1-5)", "setting": "[1]; 3.168 µM", "result": 4.444},
      {"measurement": "mean score (1-5)", "setting": "[1]; 4.224 µM", "result": 4.556},
      {"measurement": "mean score (1-5)", "setting": "[1]; 5.631 µM", "result": 4.333},
      {"measurement": "mean score (1-5)", "setting": "[1]; 7.509 µM", "result": 4.444},
      {"measurement": "mean score (1-5)", "setting": "[1]; 10.011 µM", "result": 4.333},
      {"measurement": "mean score (1-5)", "setting": "[1]; 13.348 µM", "result": 4.111},
      {"measurement": "mean score (1-5)", "setting": "[1]; 17.798 µM", "result": 3.111},
      {"measurement": "mean score (1-5)", "setting": "[1]; 23.731 µM", "result": 2.778},
      {"measurement": "mean score (1-5)", "setting": "[1]; 31.641 µM", "result": 2.111},
      {"measurement": "mean score (1-5)", "setting": "[1]; 42.188 µM", "result": 1},
      {"measurement": "mean score (1-5)", "setting": "[1]; 56.25 µM", "result": 1},
      {"measurement": "mean score (1-5)", "setting": "[1]; 75 µM", "result": 1},
      {"measurement": "mean score (1-5)", "setting": "[1]; 100 µM", "result": 1},
      {"measurement": "mean score (1-5)", "setting": "[2]; 1.336 µM", "result": 4.778},
      {"measurement": "mean score (1-5)", "setting": "[2]; 1.782 µM", "result": 4.778},
      {"measurement": "mean score (1-5)", "setting": "[2]; 2.376 µM", "result": 4.667},
      {"measurement": "mean score (1-5)", "setting": "[2]; 3.168 µM", "result": 4.889},
      {"measurement": "mean score (1-5)", "setting": "[2]; 4.224 µM", "result": 4.778},
      {"measurement": "mean score (1-5)", "setting": "[2]; 5.631 µM", "result": 4.778},
      {"measurement": "mean score (1-5)", "setting": "[2]; 7.509 µM", "result": 4.667},
      {"measurement": "mean score (1-5)", "setting": "[2]; 10.011 µM", "result": 4.667},
      {"measurement": "mean score (1-5)", "setting": "[2]; 13.348 µM", "result": 4.333},
      {"measurement": "mean score (1-5)", "setting": "[2]; 17.798 µM", "result": 3.667},
      {"measurement": "mean score (1-5)", "setting": "[2]; 23.731 µM", "result": 3.444},
      {"measurement": "mean score (1-5)", "setting": "[2]; 31.641 µM", "result": 1.111},
      {"measurement": "mean score (1-5)", "setting": "[2]; 42.188 µM", "result": 1},
      {"measurement": "mean score (1-5)", "setting": "[2]; 56.25 µM", "result": 1},
      {"measurement": "mean score (1-5)", "setting": "[2]; 75 µM", "result": 1},
      {"measurement": "mean score (1-5)", "setting": "[2]; 100 µM", "result": 1},
      {"measurement": "mean score (1-5)", "setting": "[3]; 1.336 µM", "result": 5},
      {"measurement": "mean score (1-5)", "setting": "[3]; 1.782 µM", "result": 5},
      {"measurement": "mean score (1-5)", "setting": "[3]; 2.376 µM", "result": 5},
      {"measurement": "mean score (1-5)", "setting": "[3]; 3.168 µM", "result": 5},
      {"measurement": "mean score (1-5)", "setting": "[3]; 4.224 µM", "result": 4.889},
      {"measurement": "mean score (1-5)", "setting": "[3]; 5.631 µM", "result": 4.889},
      {"measurement": "mean score (1-5)", "setting": "[3]; 7.509 µM", "result": 5},
      {"measurement": "mean score (1-5)", "setting": "[3]; 10.011 µM", "result": 4.444},
      {"measurement": "mean score (1-5)", "setting": "[3]; 13.348 µM", "result": 4.889},
      {"measurement": "mean score (1-5)", "setting": "[3]; 17.798 µM", "result": 4.667},
      {"measurement": "mean score (1-5)", "setting": "[3]; 23.731 µM", "result": 3.889},
      {"measurement": "mean score (1-5)", "setting": "[3]; 31.641 µM", "result": 1.111},
      {"measurement": "mean score (1-5)", "setting": "[3]; 42.188 µM", "result": 1},
      {"measurement": "mean score (1-5)", "setting": "[3]; 56.25 µM", "result": 1},
      {"measurement": "mean score (1-5)", "setting": "[3]; 75 µM", "result": 1},
      {"measurement": "mean score (1-5)", "setting": "[3]; 100 µM", "result": 1},
      {"measurement": "decrease of mean activity counts", "setting": "[4]", "result": 70, "unit": "%"},
      {"measurement": "decrease of mean activity counts", "setting": "[5]", "result": 46, "unit": "%"},
      {"measurement": "decrease of mean activity counts", "setting": "C. elegans wild-type N2", "result": 89, "unit": "%"},
      {"measurement": "decrease of mean activity counts", "setting": "[6]", "result": 32, "unit": "%"},
      {"measurement": "MMP signal lower than in vehicle-treated control animals", "setting": "[7]", "result": "approximately 80%"},
      {"measurement": "resistance of MCII mutants compared to wild-type", "setting": "[8]", "result": "increased resistance of the MCII mutants"}
    ]}
  ]
}
